Assay results from ChEMBL document CHEMBL1201862, “PubChem BioAssay data set” (2004).
Activity calls are given as the source filed them.

What was measured:
[1] = cells; format: functional, cell-based
[2] = A549 cell cytotoxicity, dose response, cytotoxicity control, plate reader, cherry-pick, antagonist series (AID 743412); format: functional, cell-based
[3] = HepG2 cell cytotoxicity, dose response, cytotoxicity control, plate reader, cherry-pick, antagonist series (AID 743416); format: functional, cell-based
[4] = MC4R antagonists, dose response, counter-screen for LGR2 antagonist project, cell-based, plate reader, cherry pick (AID 743444); format: functional;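 note: transfected HEK 293 cells stimulated with alpha-MSH peptide; potency of inhibitors of the alpha-MSH evoked signal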
[5] = molecular target: T1, Nuclear receptor subfamily 0 group B member 1 (Homo sapiens, UniProt P51843); format: functional, cell-based;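 note: HEK293T cells transfected with SF-1 and DAX-1 plus StAR promoter luciferase reporter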
T1 sequence (P51843 whole entry): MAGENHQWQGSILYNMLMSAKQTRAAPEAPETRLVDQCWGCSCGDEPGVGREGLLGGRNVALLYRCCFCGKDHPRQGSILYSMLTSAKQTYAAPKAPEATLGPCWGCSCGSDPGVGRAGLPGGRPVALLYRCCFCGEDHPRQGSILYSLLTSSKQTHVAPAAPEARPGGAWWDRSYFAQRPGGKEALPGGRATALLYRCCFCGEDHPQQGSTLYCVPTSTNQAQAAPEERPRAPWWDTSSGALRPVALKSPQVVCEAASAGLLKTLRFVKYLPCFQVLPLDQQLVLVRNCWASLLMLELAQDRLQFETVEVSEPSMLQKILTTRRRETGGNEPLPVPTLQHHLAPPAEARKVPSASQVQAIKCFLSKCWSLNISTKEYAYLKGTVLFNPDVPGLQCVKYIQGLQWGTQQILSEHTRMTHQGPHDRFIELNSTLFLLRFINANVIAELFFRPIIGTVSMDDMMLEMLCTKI

[6] = LGR2 antagonists, dose response, cell-based, HEK293, CRE-luciferase reporter, cherry pick, set 2 (AID 743343); format: functional;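 note: transfected cells were stimulated with diluted bursicon conditioned medium after compound addition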
[7] = molecular target: T2, Methionyl-tRNA synthetase, putative (Trypanosoma brucei brucei, UniProt Q38C91); format: functional, Trypanosoma brucei brucei strain 927/4 GUTat10.1
T2 sequence (Q38C91 whole entry): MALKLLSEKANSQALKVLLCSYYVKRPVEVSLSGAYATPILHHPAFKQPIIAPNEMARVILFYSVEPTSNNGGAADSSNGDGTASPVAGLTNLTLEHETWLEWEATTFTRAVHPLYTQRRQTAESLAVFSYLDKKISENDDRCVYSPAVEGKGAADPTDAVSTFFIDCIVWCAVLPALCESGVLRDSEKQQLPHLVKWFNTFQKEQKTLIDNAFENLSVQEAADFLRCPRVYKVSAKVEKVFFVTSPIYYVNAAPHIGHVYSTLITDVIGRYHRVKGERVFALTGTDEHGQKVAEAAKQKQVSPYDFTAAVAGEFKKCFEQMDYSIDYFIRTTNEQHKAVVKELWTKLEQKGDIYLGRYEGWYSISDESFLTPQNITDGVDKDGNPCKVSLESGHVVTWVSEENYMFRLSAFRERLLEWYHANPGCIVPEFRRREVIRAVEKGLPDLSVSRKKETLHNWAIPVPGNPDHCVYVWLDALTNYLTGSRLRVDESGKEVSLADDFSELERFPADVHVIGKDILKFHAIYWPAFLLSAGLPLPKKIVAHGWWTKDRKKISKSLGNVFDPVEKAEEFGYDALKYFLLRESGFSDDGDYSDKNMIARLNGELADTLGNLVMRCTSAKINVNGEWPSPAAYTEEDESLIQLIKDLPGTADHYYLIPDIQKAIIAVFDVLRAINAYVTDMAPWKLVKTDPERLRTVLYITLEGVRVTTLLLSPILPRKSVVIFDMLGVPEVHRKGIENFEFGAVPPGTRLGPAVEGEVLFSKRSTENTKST

[8] = molecular target: T2, Methionyl-tRNA synthetase, putative; format: functional, Trypanosoma brucei brucei strain 927/4 GUTat10.1; remark: listed apart in the source
[9] = Counterscreen for inhibitors of Trypanosoma brucei methionyl tRNA synthetase (MetRS): Luminescence-based cell-based high throughput dose response assay to identify compounds that are cytotoxic to Jurkat human T lymphocyte cells.; format: functional
[10] = CellTiter-Glo luminescent dose response of DLD-1 viability loss (AID 1117352); format: functional
[11] = molecular target: SWI/SNF-related matrix-associated actin-dependent regulator of chromatin subfamily A member 2 (Homo sapiens, UniProt P51531); test: Luminescence-based cell-based high throughput dose response assay to identify activators of the function of SWI/SNF related, matrix associated, actin dependent regulator of chromatin, subfamily a, member 2 (SMARCA2, BRM).; format: functional
Sequence of SWI/SNF-related matrix-associated actin-dependent regulator of chromatin subfamily A member 2 (P51531 whole entry): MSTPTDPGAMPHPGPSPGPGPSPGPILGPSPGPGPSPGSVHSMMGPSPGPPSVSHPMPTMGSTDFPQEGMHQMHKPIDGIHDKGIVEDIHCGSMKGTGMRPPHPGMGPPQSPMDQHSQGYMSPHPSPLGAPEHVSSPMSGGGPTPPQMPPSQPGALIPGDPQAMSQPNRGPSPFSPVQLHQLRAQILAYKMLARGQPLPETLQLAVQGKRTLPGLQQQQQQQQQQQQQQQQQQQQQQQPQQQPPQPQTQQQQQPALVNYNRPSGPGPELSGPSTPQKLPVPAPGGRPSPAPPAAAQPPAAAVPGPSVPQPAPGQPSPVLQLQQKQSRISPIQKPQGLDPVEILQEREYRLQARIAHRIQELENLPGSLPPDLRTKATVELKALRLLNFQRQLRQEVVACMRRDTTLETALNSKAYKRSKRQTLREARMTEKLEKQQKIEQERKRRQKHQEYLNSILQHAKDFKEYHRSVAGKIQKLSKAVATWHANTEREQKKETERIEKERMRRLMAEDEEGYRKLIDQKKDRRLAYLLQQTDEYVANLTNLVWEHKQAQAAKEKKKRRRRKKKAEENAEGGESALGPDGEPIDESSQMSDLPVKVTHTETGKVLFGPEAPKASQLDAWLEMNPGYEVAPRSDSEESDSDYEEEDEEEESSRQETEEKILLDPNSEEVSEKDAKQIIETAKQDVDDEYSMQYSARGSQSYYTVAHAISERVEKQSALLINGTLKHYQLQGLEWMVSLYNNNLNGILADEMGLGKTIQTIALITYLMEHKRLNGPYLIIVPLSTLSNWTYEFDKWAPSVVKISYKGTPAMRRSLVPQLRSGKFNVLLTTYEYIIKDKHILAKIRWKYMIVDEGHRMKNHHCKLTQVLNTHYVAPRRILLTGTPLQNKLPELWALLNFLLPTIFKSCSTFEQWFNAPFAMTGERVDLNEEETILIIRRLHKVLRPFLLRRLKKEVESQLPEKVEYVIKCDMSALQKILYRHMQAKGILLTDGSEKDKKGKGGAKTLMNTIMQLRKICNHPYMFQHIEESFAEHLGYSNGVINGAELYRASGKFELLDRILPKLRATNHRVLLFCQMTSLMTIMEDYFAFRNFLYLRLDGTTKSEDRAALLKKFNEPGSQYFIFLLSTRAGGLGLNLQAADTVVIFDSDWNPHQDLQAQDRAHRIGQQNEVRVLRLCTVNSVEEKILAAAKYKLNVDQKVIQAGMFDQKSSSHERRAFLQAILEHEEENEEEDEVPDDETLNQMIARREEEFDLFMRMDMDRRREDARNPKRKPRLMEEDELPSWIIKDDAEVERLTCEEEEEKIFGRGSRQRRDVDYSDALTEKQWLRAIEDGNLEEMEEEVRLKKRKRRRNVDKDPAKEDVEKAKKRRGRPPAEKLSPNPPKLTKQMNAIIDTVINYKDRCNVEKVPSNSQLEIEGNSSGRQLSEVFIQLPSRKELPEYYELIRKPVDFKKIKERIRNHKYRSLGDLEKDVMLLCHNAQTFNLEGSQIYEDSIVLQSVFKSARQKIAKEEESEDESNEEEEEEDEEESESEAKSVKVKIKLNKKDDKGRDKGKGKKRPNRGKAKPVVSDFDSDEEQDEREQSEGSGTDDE

[12] = SNU-C1 cell viability reduction, dose response, CellTiter-Glo luminescence (AID 1117323); format: functional, cell-based
[13] = HeLa 2N DNA content increase, dose response, cell-based, IC50 (AID 1117349); format: functional
[14] = cytotoxicity toward HT-29 cells – cell-based, CellTiter-Glo luminescence, IC50, dose response (AID 1117330); format: functional
[15] = HepG2 cell cytotoxicity, dose response, cytotoxicity control for Shn3 inhibitor project, CellTiter-Glo, cherry-picked (AID 624134); format: functional, cell-based
[16] = HeLa 4N DNA content increase, dose response, cell-based, IC50 (AID 1117351); format: functional
[17] = Counterscreen for activators of the function of SWI/SNF related, matrix associated, actin dependent regulator of chromatin, subfamily a, member 2 (SMARCA2, BRM): Luminescence-based cell-based high throughput dose response assay to identify non-selective compounds using the VP16 reporter assay.; format: functional
[18] = Shn3 3'UTR reporter inhibitors, dose response, cell-based, Clone20 osteoblasts, firefly luciferase, cherry-picked (AID 624132); format: functional;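 note: firefly luciferase luminescence from reporter carrying the Shn3 3'UTR in osteoblasts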

For `CN(C)c1ccc(NC(=O)c2cnsn2)cc1`, which IC50 [1] is on record?
The IC50 was > 67.5 µM (inactive).

And the AC50 [2]?
The AC50 was > 52 µM (inactive).

What about the AC50 [3] of the same molecule?
Its AC50 is > 52 µM (inactive).

And the AC50 [4]?
Its AC50 is 6.9 µM (active).

What about the IC50 [5] of the same molecule?
Its IC50 is > 2.5 µM (active).

What about the AC50 [6] of the same molecule?
Its AC50 is 4.26 µM (active).

For `Cc1ccc(CNC(=O)CSc2n[nH]c3c4ccccc4nc-3n2)cc1`, which IC50 [7] is on record?
The IC50 was 3.38 µM (active).

And the IC50 [8]?
The IC50 was 119 µM (inactive).

What about the IC50 [9] of the same molecule?
The IC50 was 83.3 µM (inactive).

With `COc1cc2ccccc2cc1C(=O)Nc1cc(C)ccn1` as the molecule, how does the IC50 [1] read?
The IC50 was > 67.6 µM (inactive).

What about the IC50 [5] of the same molecule?
Its IC50 is > 67.6 µM (inactive).

Which IC50 [10] does the source give for `CC(C)n1c(/C=C/[C@@H](O)C[C@@H](O)CC(=O)O)c(-c2ccc(F)cc2)c2ccccc21` [FLUVASTATIN SODIUM] here?
The IC50 was > 20 µM (inactive).

What about the EC50 [11] of the same molecule?
Its EC50 is > 91.1 µM (inactive).

And the IC50 [12]?
The IC50 was > 20 µM (inactive).

And the IC50 [13]?
Its IC50 is > 10 µM (inactive).

And the IC50 [14]?
The IC50 was > 20 µM (inactive).

What about the AC50 [15] of the same molecule?
The AC50 was > 70 µM (inactive).

And the IC50 [16]?
Its IC50 is > 10 µM (inactive).

And the EC50 [17]?
Its EC50 is > 91.1 µM (inactive).

And the AC50 [18]?
The AC50 was 2.4 µM (active).
